Laboratory results: patent publication US8420606B2, “Method of utilizing physiological activity of rare saccharide and composition containing rare saccharide” (priority 2002, dated 2013)
“Also recorded” adds a separate entry of the source.

Tests used:
[1] = system: uterine cancer cells (He1a); experiment: proliferation of cultured cells, MTT method, He1a; type: cell-based, human; conditions: saccharide 50 mM, 4 to 5 days
Experimental: (§1) Various kinds of rare saccharides were added at a concentration of 50 mM to culture media under the following conditions, and an influence of each rare saccharide upon the progress of proliferation of cancer cell strains was examined.
(§2) (1) Target cells to which the rare saccharides were added: Hepatic cancer cells (HepG2), uterine cancer cells (He1a), ovary cancer cells (OVCAR3), and skin keratinocyte (HaCaT) were selected as target cells to which the rare saccharides were added.
(§3) (2) Rare saccharides added: In addition to D-allose, glucose and D-altros as rare saccharides belonging to ketose were added, as other comparative saccharides, to the addition target cells. Also, D-fructose was employed as a control.
(§4) (3) Experiment method: A number 3,000-5,000 of addition target cells per type were inoculated into a multi-well plastic dish (hereinafter referred to as a “well”) having 96 wells, and were cultured for 4 to 5 days in a culture medium supplemented with 5 to 10% of Fetal Bovine Serum (FBS) depending on the cell types. […] To examine the influence upon the cell proliferation, the cell number was measured in units of 24 hours by using the MTT method described below. […]
(§5) (2) Test method: The cells were treated with TEP to prepare a cell suspension liquid. […] The absorbance of the liquid was measured at a wavelength of 570 to 600 nm by using a spectrophotometer. […]

[2] = system: skin keratinocyte (HaCaT); experiment: proliferation of cultured cells, MTT method, HaCaT; type: cell-based, human; conditions: saccharide 50 mM, 4 to 5 days
Experimental: as §1, §2, §3, §4, §5

KS-1 = experiment: blood-system cancer cell strain proliferation, Coulter Counter, KS1; type: cell-based; conditions: 0.05-50 mM, 7 days, D-glucose control
Experimental: (2) Method: Total 6 kinds of cell strains, i.e., Myeloid (HL-60, THP-1, KG-1), T-cell (MT-2), and B-Cell (Daudi, KS-1), and 3 kinds of rare saccharides (i.e., D-psicose, D-altrose, and D-allose), were employed. The culture medium and the cells were prepared to be 1 mL in total and 1×10^5 in number, respectively. Then, the cell number at each of fourth day and seventh day was counted by using a Coulter Counter. Each rare saccharide was added at concentrations of 0.05, 0.5, 5 and 50 mM, while D-glucose was used as a control.
Culture Medium: FBS 10% added RPMI1460
Cultivation Conditions: 37° C., 5% CO2
Cultivation Vessel: FALCON, MULTIWELL, 12 wells
Number of Cultivation Days: 7 days
Saccharides Concentration: 0.05, 0.5, 5, 50 mM

[3] = influence of psicose upon hyperglycemia; type: in vivo, rat; conditions: 0.5 g/kg intravenous; compared with deoxyglucose control
Experimental: IVGTT was conducted on 8-week old male SD rats by inserting a catheter through the jugular vein, injecting 50% glucose at intervals of 20 minutes to make a hyperglycemic state, and then injecting psicose and deoxyglucose. A rare saccharide was administrated to 1 rat, and deoxyglucose was administrated to 1 rat.
Perform intravenous injection (IV) at 0.5 g/kg (i.e., 0.5 g/1000 g=500 mg/1000 g=0.5 mg/g).
Prepare rare-saccharide and deoxyglucose solutions in concentration of 0.5 g/mL (i.e., 0.5 g/1000 ul=500 mg/1000 ul=0.5 mg/ul). Prepare 2 mL of solution for each concentration.
Intravenously inject 200 ul of the solution for a 200 g rat.
Intravenously inject 250 ul of the solution for a 250 g rat.
Inject 300 ul of physiological saline after the intravenous injection.
Collect 150 ul of blood sample.
Collect blood at 9 points in time, i.e., 0, 5, 10, 15, 20, 25, 30, 45 and 60 minutes.

Structure (SMILES)	proliferation of He1a cells (cell number over time) [1]	proliferation of HaCaT cells (cell number over time) [2]	KS1 proliferation inhibitory effect (KS-1)	KS1 proliferation inhibitory effect (KS-1; listed as allose)	blood sugar value in hyperglycemic state [3]	insulin concentration in hyperglycemic state [3]
O=C[C@H](O)[C@H](O)[C@H](O)[C@H](O)CO [D-allose]	strongly inhibited proliferation; also recorded: has a proliferation inhibitory effect	strongly inhibited proliferation; also recorded: has a proliferation inhibitory effect	having the inhibitory effect	showed a cell proliferation inhibitory effect at 59 mM	–	–
O=C(CO)[C@H](O)[C@H](O)[C@H](O)CO [D-psicose]	–	–	–	–	reduced more quickly	an increase in the insulin secretion
